In US20230203040A1, “CRYSTALLINE FORMS OF A SULFONAMIDE COMPOUND AND PROCESSES FOR PREPARING THE SAME” (CRYSTAL PHARMATECH CO., LTD., priority 2020, published 2023):
In brackets after ≈: the same amount, converted by molar mass.

Tests used:
Format in all cases: physicochemical
[1] = Hygroscopicity by dynamic vapor sorption (DVS); conditions: 25° C.; for Weight gain at 80% RH: 80% relative humidity; for Weight gain at 95% RH: 95% relative humidity
Method: The dynamic vapor sorption diagrams of the present invention were collected on Intrinsic-type and Intrinsic Plus-type dynamic vapor sorption instruments of SMS company. The process parameters of the dynamic vapor sorption test of the present invention were as follows: Temperature: 25° C. Protection gas and its flow rate: N2, 200 mL/minute dm/dt: 0.002%/minute Minimum dm/dt equilibration time: 10 minutes Maximum Equilibration Time: 180 minutes Relative humidity range: 0% RH-95% RH-0% RH Relative humidity gradient: 10% (0% RH-90% RH-0% RH), 5% (90% RH-95% RH and 95% RH-90% RH). Each about 10 mg of Crystalline Form of the present invention and Crystalline Form A of WO2020/008391A was weighed for dynamic vapor sorption (DVS) test, and then sampled to measure XRPD. The experimental results were shown in Table 21, and the dynamic vapor sorption diagrams of Crystalline Forms A and E were shown in FIGS. 22-23 respectively.

[2] = Solubility of crystalline forms in FaSSIF, FeSSIF and pure water (saturated solutions, HPLC); conditions: 37° C.; for Solubility in water: pure water
Method: The sample contents in saturated solutions were determined by high performance liquid chromatography (HPLC).

[3] = Compressibility of crystalline forms (manual tableting, hardness and tensile strength); conditions: for hardness (radial crushing force) / Tensile strength: tablet pressed at 10 KN; for hardness (radial crushing force): 24 hours in dryer; for Tensile strength: T=2H/πDL
Method: A manual tableting machine was used to perform the tableting. […] 10 KN pressure was applied to suppress into cylindrical tablets, which were placed in a dryer for 24 hours. After the complete elastic restoration, the tablets were tested with a tablet hardness meter for its radial crushing force (hardness, H). Diameter (D) and thickness (L) of the tablets were measured with a Vernier caliper, and the tensile strength of the powder under different hardness was calculated using the formula T=2H/πDL. Under a certain pressure, the higher the tensile strength was, the better the compressibility was.

[4] = Intrinsic dissolution rate; conditions: pH 6.8 Phosphate Buffer, 37° C., paddle 100 rpm, sheet 0.5 cm^2
Method: The intrinsic dissolution rate data of the present invention were collected on an Agilent 708DS-type dissolution apparatus of the Agilent company. The intrinsic dissolution test conditions were as follows.
An intact pressed sheet was transferred to the dissolution apparatus for testing the intrinsic dissolution rate, and the slope was calculated according to the measurement points between 10 and 30 minutes, expressed in mg/mL, and the intrinsic dissolution rate (IDR) was further calculated according to the slope, expressed in mg/min/cm^2. The dissolution rate of Crystalline Form E of the present invention was faster than that of Crystalline Form A of the prior art.

Weight gain at 80% RH [1]	Weight gain at 95% RH [1]	Solubility in FaSSIF ([2]; equilibrated 1 hour)	Solubility in FaSSIF ([2]; equilibrated 2 hours)	Solubility in FaSSIF ([2]; equilibrated 4 hours)	Solubility in FeSSIF ([2]; equilibrated 1 hour)	Solubility in FeSSIF ([2]; equilibrated 2 hours)	Solubility in FeSSIF ([2]; equilibrated 4 hours)	Solubility in water ([2]; equilibrated 1 hour)	Solubility in water ([2]; equilibrated 2 hours)	Solubility in water ([2]; equilibrated 4 hours)	hardness (radial crushing force) [3]	Tensile strength [3]	solubility in FaSSIF, FeSSIF and pure water compared with Crystalline Form A [2]	dissolution rate (intrinsic) compared with Crystalline Form A [4]	SMILES	tensile strength and compressibility compared with Crystalline Form A ([3]; 10 KN)
0.09%	0.27%	72.3 µg/mL (≈ 224 µM)	78 µg/mL (≈ 241 µM)	76.1 µg/mL (≈ 235 µM)	9.4 µg/mL (≈ 29.1 µM)	9.4 µg/mL (≈ 29.1 µM)	9.6 µg/mL (≈ 29.7 µM)	64.3 µg/mL (≈ 199 µM)	74.7 µg/mL (≈ 231 µM)	72.3 µg/mL (≈ 224 µM)	17.01 N	1.805 MPa	–	–	CCCS(=O)(=O)N[C@H]1C[C@@H](N(C)c2ncnc3[nH]ccc23)C1 [Crystalline Form A, reference compound]	–
–	–	189 µg/mL (≈ 584 µM)	203.5 µg/mL (≈ 629 µM)	214.2 µg/mL (≈ 662 µM)	51.6 µg/mL (≈ 160 µM)	54.9 µg/mL (≈ 170 µM)	59.2 µg/mL (≈ 183 µM)	179.6 µg/mL (≈ 555 µM)	189.2 µg/mL (≈ 585 µM)	203 µg/mL (≈ 628 µM)	–	–	–	–	CCCS(=O)(=O)N[C@H]1C[C@@H](N(C)c2ncnc3[nH]ccc23)C1 [Crystalline Form F]	–
0.11%	0.19%	153.8 µg/mL (≈ 476 µM)	164.5 µg/mL (≈ 509 µM)	169.4 µg/mL (≈ 524 µM)	38.4 µg/mL (≈ 119 µM)	39.2 µg/mL (≈ 121 µM)	44.1 µg/mL (≈ 136 µM)	114.7 µg/mL (≈ 355 µM)	138.6 µg/mL (≈ 429 µM)	156.2 µg/mL (≈ 483 µM)	17.20 N	2.607 MPa	higher	faster	CCCS(=O)(=O)N[C@H]1C[C@@H](N(C)c2ncnc3[nH]ccc23)C1 [Crystalline Form E]	higher tensile strength and better compressibility
